In ChEMBL document CHEMBL1201862, “PubChem BioAssay data set” (2004):
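Briefly, cells in 96-well plates were exposed to five compound concentrations for 48 h, and endpoints were estimated by linear interpolation. GI50 is the concentration that inhibits growth by half.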 Activity calls are given as the source filed them. Rule as the data show it: active = GI50 up to about 1.1 µM and inactive = higher.

Columns and labels:
Assay in all cases: NCI tumour cell line growth inhibition, 48 h
IGROV-1 = tested on: IGROV-1
NCI-H226 = tested on: NCI-H226
HOP-62 = tested on: HOP-62
SNB-19 = tested on: SNB-19
SF-539 = tested on: SF-539
UO-31 = tested on: UO-31
SNB-75 = tested on: SNB-75
OVCAR-8 = tested on: OVCAR-8
SK-MEL-28 = tested on: SK-MEL-28
SK-OV-3 = tested on: SK-OV-3
NCI-H460 = tested on: NCI-H460
NCI/ADR-RES = tested on: NCI/ADR-RES
786-0 = tested on: 786-0
Hs-578T = tested on: Hs-578T
SK-MEL-5 = tested on: SK-MEL-5
COLO 205 = tested on: COLO 205
Malme-3M = tested on: Malme-3M
NCI-H23 = tested on: NCI-H23
HT-29 = tested on: HT-29
MDA-MB-231 = tested on: MDA-MB-231
UACC-62 = tested on: UACC-62
SR = tested on: SR
KM12 = tested on: KM12
K562 = tested on: K562
MOLT-4 = tested on: MOLT-4
RXF 393 = tested on: RXF 393
OVCAR-4 = tested on: OVCAR-4
SF-295 = tested on: SF-295
HL-60 = tested on: HL-60
HCT-15 = tested on: HCT-15
MCF7 = tested on: MCF7
SW-620 = tested on: SW-620
MDA-MB-435 = tested on: MDA-MB-435
CCRF-CEM = tested on: CCRF-CEM
HCC 2998 = tested on: HCC 2998
OVCAR-5 = tested on: OVCAR-5
EKVX = tested on: EKVX
M14 = tested on: M14
SN12C = tested on: SN12C
A498 = tested on: A498
SF-268 = tested on: SF-268
DU-145 = tested on: DU-145
HCT-116 = tested on: HCT-116
T47D = tested on: T47D
U-251 = tested on: U-251
A549 = tested on: A549
ACHN = tested on: ACHN
TK-10 = tested on: TK-10
UACC-257 = tested on: UACC-257
RPMI-8226 = tested on: RPMI-8226
HOP-92 = tested on: HOP-92
CAKI-1 = tested on: CAKI-1
NCI-H522 = tested on: NCI-H522
PC-3 = tested on: PC-3
MDA-N = tested on: MDA-N
LOX IMVI = tested on: LOX IMVI
OVCAR-3 = tested on: OVCAR-3
SK-MEL-2 = tested on: SK-MEL-2

Measured: GI50

N/N=C(\N)Nc1cccc2ccccc12
> 100 µM: HCT-15
inactive: IGROV-1 > 100 µM | NCI-H226 > 100 µM | HOP-62 > 100 µM | SNB-19 > 100 µM | SF-539 > 100 µM | UO-31 > 100 µM | SNB-75 > 100 µM | OVCAR-8 > 100 µM | SK-MEL-28 > 100 µM | SK-OV-3 > 100 µM | NCI-H460 > 100 µM | NCI/ADR-RES > 100 µM | 786-0 > 100 µM | Hs-578T > 100 µM | SK-MEL-5 > 100 µM | COLO 205 > 100 µM | Malme-3M > 100 µM | NCI-H23 > 100 µM | HT-29 > 100 µM | MDA-MB-231 > 100 µM | UACC-62 > 100 µM | SR > 100 µM | KM12 > 100 µM | K562 > 100 µM | MOLT-4 > 100 µM | RXF 393 > 100 µM | OVCAR-4 > 100 µM | SF-295 > 100 µM | HL-60 > 100 µM | MCF7 > 100 µM | SW-620 > 100 µM | MDA-MB-435 > 100 µM | CCRF-CEM > 100 µM | HCC 2998 > 100 µM | OVCAR-5 > 100 µM | EKVX > 100 µM | M14 > 100 µM | SN12C > 100 µM | A498 33.3 µM | SF-268 > 100 µM | DU-145 > 100 µM | HCT-116 > 100 µM | T47D > 100 µM | U-251 > 100 µM | A549 > 100 µM | ACHN > 100 µM | TK-10 > 100 µM | UACC-257 > 100 µM | RPMI-8226 > 100 µM | HOP-92 27.9 µM

CC1(C)COC(c2cccc(C(O)c3ccc(Cl)cc3)c2)=N1 (centres undefined)
inactive: IGROV-1 30.5 µM | NCI-H226 14.8 µM | HOP-62 30.1 µM | CAKI-1 42.3 µM | SNB-19 32.6 µM | SF-539 19.4 µM | UO-31 17.1 µM | NCI-H522 31.8 µM | SNB-75 2.94 µM | OVCAR-8 16.1 µM | SK-MEL-28 29.2 µM | PC-3 16.6 µM | MDA-N 24.8 µM | SK-OV-3 26.4 µM | LOX IMVI 15 µM | NCI-H460 29.4 µM | NCI/ADR-RES 33.3 µM | 786-0 23.9 µM | Hs-578T 23.4 µM | SK-MEL-5 14.4 µM | COLO 205 18 µM | Malme-3M 25.1 µM | NCI-H23 23.9 µM | HT-29 17.7 µM | MDA-MB-231 29.9 µM | UACC-62 19 µM | SR 31.3 µM | KM12 43.7 µM | K562 23.4 µM | MOLT-4 12.1 µM | RXF 393 15 µM | OVCAR-3 20.1 µM | OVCAR-4 56.8 µM | HL-60 41 µM | MCF7 19.6 µM | SW-620 28.9 µM | MDA-MB-435 24.9 µM | CCRF-CEM 19 µM | HCC 2998 23.8 µM | OVCAR-5 17.9 µM | EKVX 35.4 µM | M14 19.9 µM | SN12C 26.9 µM | SK-MEL-2 24.2 µM | SF-268 31.1 µM | DU-145 58.2 µM | HCT-116 18.1 µM | T47D 36.3 µM | U-251 22.6 µM | A549 > 10 µM | ACHN 33.7 µM | TK-10 32.6 µM | RPMI-8226 27.2 µM | HOP-92 24.9 µM

CC(C)=CC(=O)O[C@H]1C(=O)O[C@@H]2C[C@H]3[C@H](C)C(=O)C(O[C@@H]4O[C@H](CO)[C@@H](O)[C@H](O)[C@H]4O)=C[C@]3(C)[C@H]3[C@@H](O)[C@H](O)[C@]4(C(=O)O)OC[C@]32[C@@H]14 [BRUCEOSIDE D]
inactive: IGROV-1 54 µM | CAKI-1 90.8 µM | SNB-75 86.1 µM | PC-3 71 µM | MDA-N 66.2 µM | 786-0 96.6 µM | COLO 205 65.8 µM | NCI-H23 56.1 µM | UACC-62 97.5 µM | SW-620 79.4 µM | MDA-MB-435 66.5 µM | OVCAR-5 84.5 µM | A498 79.1 µM | T47D 51.9 µM | TK-10 71.9 µM | UACC-257 98.9 µM

O=c1c2ccccc2sc2cccc(NCCCN3CCN(CCCNc4cccc5sc6ccccc6c(=O)c45)CC3)c12
> 100 µM: HCT-15
inactive: IGROV-1 > 100 µM | NCI-H226 > 100 µM | HOP-62 > 100 µM | CAKI-1 > 100 µM | SNB-19 > 100 µM | SF-539 > 100 µM | UO-31 > 100 µM | NCI-H522 > 100 µM | SNB-75 19.5 µM | SK-MEL-28 > 100 µM | PC-3 85.1 µM | MDA-N > 100 µM | SK-OV-3 > 100 µM | LOX IMVI > 100 µM | NCI-H460 > 100 µM | NCI/ADR-RES > 100 µM | 786-0 > 100 µM | Hs-578T 52.7 µM | SK-MEL-5 > 100 µM | COLO 205 > 100 µM | Malme-3M > 100 µM | NCI-H23 > 100 µM | HT-29 > 100 µM | MDA-MB-231 > 100 µM | UACC-62 64.7 µM | SR > 100 µM | KM12 > 100 µM | K562 > 100 µM | MOLT-4 > 100 µM | RXF 393 > 100 µM | OVCAR-3 > 100 µM | OVCAR-4 > 100 µM | SF-295 > 100 µM | HL-60 > 100 µM | MCF7 > 100 µM | SW-620 > 100 µM | MDA-MB-435 > 100 µM | CCRF-CEM > 100 µM | HCC 2998 > 100 µM | OVCAR-5 > 100 µM | EKVX > 100 µM | M14 > 100 µM | SN12C > 100 µM | A498 > 100 µM | SK-MEL-2 > 100 µM | SF-268 > 100 µM | DU-145 > 100 µM | HCT-116 > 100 µM | T47D > 100 µM | U-251 > 100 µM | A549 > 100 µM | ACHN > 100 µM | TK-10 > 100 µM | UACC-257 > 100 µM | RPMI-8226 > 100 µM

O=[N+]([O-])/C(C(Cl)=C(Cl)Cl)=C1\Nc2ccccc2O1
> 100 µM: HCT-15
inactive: IGROV-1 43.7 µM | NCI-H226 27.5 µM | HOP-62 47.4 µM | CAKI-1 > 100 µM | SNB-19 > 100 µM | SF-539 19.9 µM | UO-31 14.5 µM | NCI-H522 27.2 µM | SNB-75 15.7 µM | OVCAR-8 25.2 µM | SK-MEL-28 > 100 µM | PC-3 70.5 µM | MDA-N 45.4 µM | SK-OV-3 > 100 µM | LOX IMVI > 100 µM | NCI-H460 > 100 µM | 786-0 17 µM | Hs-578T 32.3 µM | SK-MEL-5 > 100 µM | COLO 205 60.1 µM | Malme-3M 27.9 µM | NCI-H23 67.3 µM | HT-29 > 100 µM | MDA-MB-231 44.3 µM | UACC-62 9.16 µM | SR 24.9 µM | KM12 90.6 µM | K562 > 100 µM | MOLT-4 29.6 µM | RXF 393 > 100 µM | OVCAR-3 23.4 µM | OVCAR-4 33.8 µM | SF-295 > 100 µM | HL-60 28.8 µM | MCF7 40.2 µM | SW-620 > 100 µM | MDA-MB-435 36.6 µM | CCRF-CEM 19.5 µM | HCC 2998 > 100 µM | OVCAR-5 > 100 µM | EKVX > 100 µM | M14 > 100 µM | SN12C 45.9 µM | A498 > 100 µM | SK-MEL-2 > 100 µM | SF-268 > 100 µM | DU-145 > 100 µM | HCT-116 51.6 µM | T47D > 100 µM | U-251 > 100 µM | A549 37.7 µM | ACHN 35.8 µM | TK-10 > 100 µM | UACC-257 > 100 µM | RPMI-8226 24.3 µM | HOP-92 12 µM

COc1ccc(C[C@H]2COC(=O)[C@@H]2Cc2ccc(O)cc2)cc1OC
inactive: IGROV-1 > 100 µM | NCI-H226 > 100 µM | HOP-62 > 100 µM | SNB-19 > 100 µM | OVCAR-8 > 100 µM | SK-MEL-28 > 100 µM | LOX IMVI > 100 µM | NCI-H460 > 100 µM | NCI/ADR-RES > 100 µM | 786-0 > 100 µM | Hs-578T > 100 µM | SK-MEL-5 > 100 µM | Malme-3M > 100 µM | NCI-H23 > 100 µM | HT-29 > 100 µM | SR > 100 µM | K562 > 100 µM | MOLT-4 > 100 µM | OVCAR-3 > 100 µM | OVCAR-4 > 100 µM | SF-295 > 100 µM | SW-620 > 100 µM | CCRF-CEM > 100 µM | OVCAR-5 > 100 µM | EKVX > 100 µM | M14 > 100 µM | A498 > 100 µM | DU-145 > 100 µM | HCT-116 > 100 µM | A549 > 10 µM | ACHN > 100 µM | TK-10 > 100 µM | UACC-257 > 100 µM | RPMI-8226 > 100 µM | HOP-92 > 100 µM
